Values of other authors as cited in patent US6288033A, “Treatment of hepatitis B infection with thymosin alpha 1 in combination with lamivudine or in combination with lamivudine and famciclovir” (priority 1998, dated 2001).
Like-named read-outs stand apart in the source and are kept apart here. No end group written: not given here.

Experiments:
[1] = system: HBV
[2] = system: duck hepatitis B viral replication; conditions: for HBV DNA and DNA polymerase levels: within two days of start, maintained during 21 days; for time viral replication remained suppressed after dosing had stopped: then levels returned to pre-treatment
[3] = not given; remark: listed apart in the source
[4] = system: HBV; conditions: 10 day course, 250 mg or 500 mg tid
[5] = system: HBV transfected cell lines
[6] = system: HBV; conditions: chronically infected chimpanzees
[7] = system: HBV; conditions: duck model
[8] = up to 2 years, HIV-infected patients
[9] = system: HBV; conditions: 1 microgram/ml
[10] = system: HBV; remark: listed apart in the source
[11] = system: HBV; remark: listed apart in the source
[12] = system: anti-HBs; conditions: previously non-reactive hemodialysis patients, after Heptavax-B vaccination
[13] = system: woodchuck hepatitis virus (WHV)
[14] = system: hepatitis B virus (HBV)
[15] = North America and European patients

Molecule: CC(=O)OCC(CCn1cnc2cnc(N)nc21)COC(C)=O [famciclovir, diacetyl ester of 6-deoxypenciclovir]
- frequency of adverse experiences and laboratory abnormalities versus placebo (11 double-blind and 2 open trials, more than 3000 patients): similar
- most common adverse experiences (human, in vivo): headache, nausea and diarrhea
- tolerability ([1]; adverse events profile similar to placebo): well tolerated
- HBV DNA and ALT levels ([1]; up to 500 mg three times a day for 16 weeks, preliminary data): significant reduction
- HBV DNA and DNA polymerase levels ([2]; oral 5 and 25 mg/kg twice a day): undetectable levels
- time viral replication remained suppressed after dosing had stopped [2]: at least two days
- penciclovir concentration in the blood, Cmax ([3]; after a 500 mg oral famciclovir dose): 21.73 microgram/ml
- drug-related adverse effects on clinical laboratory values, blood pressure, heart rates or ECG ([3]; single and repeat doses up to 1000 mg three times daily for six days): no evidence of drug-related adverse effects
- absorption ([3]; volunteers, oral): well absorbed
- evaluable patients with a greater than 90% fall in HBV DNA levels [4]: 6 of 11

Molecule: Nc1ccn([C@@H]2CS[C@H](CO)O2)c(=O)n1 [lamivudine, 2'3'-dideoxy-3'thiacytidine]
- antiviral activity [5]: has been shown
- antiviral activity [6]: has been shown
- antiviral activity [7]: has been shown
- toxicity [8]: without significant toxicity

Molecule: Nc1nc2c(ncn2CCC(CO)CO)c(=O)[nH]1 [penciclovir]
- reduction in HBV DNA ([9]; day 6): 50%
- reduction in HBV DNA ([9]; day 9): 90%
- HBV DNA and DNA polymerase levels ([2]; oral 20 and 100 mg/kg twice a day): undetectable levels
- time viral replication remained suppressed after dosing had stopped [2]: at least two days
- penciclovir concentration in the blood, Cmax ([3]; after a 5 mg/kg oral dose of penciclovir alone): approximately 0.14 microgram/ml

Molecule: Thymosin alpha 1 (Ac-SDAAVDTSSEITTKDLKEKKEVVEEAEN; UniProt P06454 2-29, looked up) [Tα1]
- CR (complete response), number of patients ([10]; 1.6 mg S.C. 2×/week, 6 months, n=49): 7 patients
- CR (%) ([10]; 1.6 mg S.C. 2×/week, 6 months, n=49, p 0.084): 14%
- patients with sustained loss of HBV DNA with negative HBeAg, number ([10]; during the 1yr study or post study follow up): 12 patients
- patients with sustained loss of HBV DNA with negative HBeAg ([10]; during the 1yr study or post study follow up, p<0.11 vs placebo): 25%
- DR (%) ([10]; n=49): 10%
- DR (delayed response), number of patients ([10]; n=49): 5 patients
- IR (%) ([10]; n=49): 0%
- IR (incomplete response), number of patients ([10]; n=49): 0 patients
- serum aminotransferase levels ([11]; conclusion of the study (1 year), 12 patients received TF5 or Tα1 twice weekly for six months): improved significantly
- peripheral blood lymphocyte, CD3 and CD4 counts, in vitro production of interferon-gamma over initial values ([11]; in responders to therapy): significant improvements
- side effects ([11]; in vivo): No side effects were observed
- patients who cleared serum HBV DNA, number ([11]; of 12 treated patients, 1 year): Nine
- patients who cleared serum HBV DNA ([11]; of 12 treated patients, 1 year, p<0.004 vs placebo): 75%
- responders with sustained remission (normal ALT, negative serum HBV DNA by PCR and HBeAg) ([11]; of the responders): About 78%
- safety and efficacy in clearing HBV DNA ([11]; phase II studies, 1.45 to 1.75 mg (adults) per twice-weekly injection): safe and effective in clearing HBV DNA from the blood
- in vivo production of anti-HBs [12]: enhance
- treated animals with undetectable WHV DNA levels ([13]; 10 μg/Kg s.c. twice weekly, 28 weeks, 6 treated animals, end of treatment): 4 animals
- decrease in liver levels of WHV DNA replication intermediates ([13]; liver biopsy, the 4 animals with undetectable serum WHV DNA): 50 to 300 fold
- change in liver levels of WHV DNA replication intermediates ([13]; liver biopsy, the other 2 animals): only a small change from the pretreatment levels
- depression of WHV DNA levels ([13]; remaining 2 treated animals, end of treatment): 100 fold

Molecule: interferon-alpha
- of the HBeAg-clearing patients, clear HBsAg ([14]; Asian patients): approximately 10%
- patients who clear HBeAg ([14]; Asian patients): 15-20%
- of the HBeAg-clearing patients, ultimately cleared HBsAg [14, 15]: 25-65%
- sustained clearance of hepatitis B e antigen (HBeAg), patients [14, 15]: 30-40%
